From patent publication US9873670B2, “Arylquinoline and analog compounds and use thereof to treat cancer” (UNIVERSITY OF KENTUCKY RESEARCH FOUNDATION, priority 2013, dated 2018)

Key:
Par-4 secretion = experiment: Par-4 secretion, cells not specified; format: cell-based
[1] = tested on: mouse embryonic fibroblast (MEF) cells; experiment: Par-4 secretion from normal mouse fibroblasts (Western blot of conditioned medium); format: cell-based; settings: for level of Par-4 secretion, structure-activity comparison among analogs: normal mouse fibroblasts, conditions not toxic to the cells
Procedure: In another aspect, the subject technology provides assays for screening test compounds that interfere with vimentin binding to PAR-4 or which cause release of vimentin-bound PAR-4. In a typical assay, cells, such as HEL cells, are seeded onto an appropriate support, such as 60-mm plates containing supplemented growth medium (e.g., supplemented with 0.1% serum) at a desired confluency, such as 40-70% confluency, and treated with the test compound (e.g., 500 nM) or control vehicle. The cells are allowed to grow for a period of time, such as 24 hours, after which the conditioned medium (CM) is concentrated (e.g., concentrated 30× to 100 μl using Millipore tubes (Amicon Ultra centrifugal filters, Ultracel-10K) by 15 min centrifugation at 4500 rpm). The concentrated CM is then subjected to co-immunoprecipitation using detectably labeled PAR-4 and vimentin antibodies in the presence of various concentrations of purified PAR-4 and the precipitated proteins are resolved by SDS-PAGE and analyzed by Western blot analysis. The amount of immunoprecipitated PAR-4-vimentin complex is compared to that of control samples. For example, chemiluminescent signals may be quantified in the BIO-RAD Molecular Imager ChemiDoc XRS+Imaging system using Quantity One software. Induction of Par-4 secretion by the test drug (e.g., 500 nM), as judged by this Western blot analysis procedure, will indicate dissociation of Par-4 from vimentin. […] For such experiments, cells may be treated with the test drug (e.g., 500 nM) or vehicle for an appropriate period of time, such as 24 hours, and then cell lysates are prepared and subjected to immunoprecipitation using an appropriate amount of a Par-4 antibody, vimentin antibody or control IgG antibody by using any standard immunoprecipitation procedure. Following […], the complexes are resolved, preferably by Western blot analysis as described above. If the drug inhibits the binding of Par-4 to vimentin, it will be reflected in the lack of co-immunoprecipitation of Par-4 with the vimentin antibody, and co-immunoprecipitation of vimentin with the Par-4 antibody.
Co-Immunoprecipitation and Western blot analysis: Protein extracted from cell lysates was filtered, pre-cleared with 25 μL (bed volume) of protein G-Sepharose beads and immunoprecipitated with 1 μg of respective antibodies. The eluted proteins were resolved by SDS-PAGE, and subjected to Western blot analysis as described.
To identify Par-4 secretagogues, we synthesized and screened 3-arylquinolines as well as related quinolones and quinothiolones for the secretion of Par-4 protein from normal fibroblasts under conditions that are not toxic to the cells.
We screened representative members of each of these heterocyclic families on a compound-by-compound basis for the secretion of Par-4 protein from normal mouse fibroblasts under conditions that were not toxic to the cells. Initial expectations were that these heterocycles would serve as Nutlin-3a surrogates and inhibit MDM2, but studies reported herein established a completely different mechanism of action, reflecting that the structural dissimilarities between these heterocycles and Nutlin-3a outweighed the similarities that led to their initial selection for screening.

melting point [°C]	SMILES	other results
247 to 248	CN(C)c1ccc2cc(-c3ccccc3F)c(=O)[nH]c2c1 [Arylquin 4, 7-(dimethylamino)-3-(2-fluorophenyl)quinolin-2(1H)-one]	
	C[C@H]1CCC/C=C/[C@@H]2C[C@H](O)C[C@H]2[C@H](O)/C=C/C(=O)O1 [Brefeldin A, reference compound]	effect on basal and Arylquin 1-inducible Par-4 secretion (Par-4 secretion): inhibited basal as well as Arylquin 1-inducible Par-4 secretion
	COc1ccc(C2=N[C@@H](c3ccc(Cl)cc3)[C@@H](c3ccc(Cl)cc3)N2C(=O)N2CCNC(=O)C2)c(OC(C)C)c1 [Nutlin-3a, reference compound]	Par-4 secretion ([1]; MEF cells): stimulated Par-4 secretion at micromolar levels
251 to 253	CN(C)c1ccc2cc(-c3ccccc3F)c(=S)[nH]c2c1 [Arylquin 5, 7-(dimethylamino)-3-(2-fluorophenyl)quinoline-2(1H)-thione]	
147 to 148	CN(C)c1ccc2cc(-c3cccc(F)c3)c(N)nc2c1 [Arylquin 2, 3-(3-fluorophenyl)-N^7,N^7-dimethylquinoline-2,7-diamine]	
123 to 125	CN(C)c1ccc2cc(-c3ccccc3)c(N)nc2c1 [Arylquin 7, N^7,N^7-Dimethyl-3-phenylquinoline-2,7-diamine]	
142 to 144	CN(C)c1ccc2cc(-c3ccccc3F)cnc2c1 [Arylquin 6, 3-(2-fluorophenyl)-N,N-dimethylquinolin-7-amine]	level of Par-4 secretion, structure-activity comparison among analogs [1]: highest levels of Par-4 secretion
152 to 153	Nc1nc2ccccc2cc1-c1ccccc1F [Arylquin 8, 3-(2-fluorophenyl)quinolin-2-amine]	level of Par-4 secretion, structure-activity comparison among analogs [1]: highest levels of Par-4 secretion
	CN(C)c1ccc2cc(-c3ccccc3F)c(SCC(=O)NCCOCCOCCNC(=O)CCCCC3SCC4NC(=O)NC43)nc2c1 (centres unmarked) [Biotinylated Arylquin 9, N-(2-(2-(2-(2-(7-(dimethylamino)-3-(2-fluorophenyl)quinolin-2-ylthio)acetamido)ethoxy)ethoxy)ethyl)-5-(2-oxohexahydro-1H-thieno[3,4-d]imidazol-4-yl)pentanamide]	Par-4 secretory properties (Par-4 secretion): retain Par-4 secretory properties
